Legend:
Type in all cases: cell-based
[1] = target: MEF2D/p300 protein-protein interactions (Homo sapiens (Human), UniProt Q14814); experiment: Mammalian two-hybrid assay, inhibition of MEF2D and P300 protein interactions (luciferase reporter in HeLa cells); conditions: HeLa cells co-transfected with GAL4-MEF2D, P300-VP16 and Gal4Luc
Source text: Detection of MEF2D and P300 interactions. The same system that was used in Example 19 is used in here to detect MEF2D and P300 interactions. In this assay, two separate DNA constructs were made with MEF2D fused with the GAL4 DNA binding domain (GAL4-MEF2D) and P300 fused with the viral transactivator VP-16 ([…]). Human epithelial carcinoma cells (HeLa) were co-transfected with the two DNA constructs (GAL4-MEF2D and P300-VP16) and a reporter plasmid (Gal4Luc). […] MEF2D and P300 protein interactions were detected as a result of the GAL4-MEF2D and P300-VP16 protein complex binding a DNA promoter on the reporter plasmid (Gal4Luc) and driving cellular expression of a luciferase gene. The measured luciferase protein signal was proportional to the amount of MEF2D and P300 protein interactions occurring with the cell.
The relative activity and IC50 calculations. The IC50 concentrations were calculated in the same manner as described for Example 19.

[2] = target: MEF2D/HDAC4 protein-protein interactions (Homo sapiens (Human), UniProt Q14814); experiment: Mammalian two-hybrid assay, inhibition of MEF2D and HDAC4 protein interactions (luciferase reporter in HeLa cells); conditions: HeLa cells co-transfected with GAL4-MEF2D, HDAC4-VP16 and Gal4Luc; overnight treatment; luciferase normalized to Renilla
Source text: Detection of MEF2D and HDAC4 interactions. In this mammalian two-hybrid assay, HDAC4 and MEF2D proteins were used. […] Human epithelial carcinoma cells (HeLa) were co-transfected with the two DNA constructs (GAL4-MEF2D and HDAC4-VP16) and a reporter plasmid (Gal4Luc). […] MEF2D and HDAC4 protein interactions were detected as a result of the GAL4-MEF2D and HDAC4-VP16 protein complex binding a DNA promoter on the reporter plasmid (Gal4Luc) and driving cellular expression of a luciferase gene. The measured luciferase protein signal was proportional to the amount of MEF2D and HDAC4 protein interactions occurring with the cell.
The HDAC4 fragment lacked the catalytic domain so that the deacetylase activity was excluded from the assay.
Detection of inhibition of MEF2D and HDAC4 interactions. Next, the assay was used to test whether the compounds could disrupt the interactions between MEF2D and HDAC4. After co-expressing the GAL4-MEF2D and HDAC4-VP16 DNA constructs and reporter plasmid, the HeLa cells were treated with a test compound (10 μM) overnight. Cells transfected with the positive control GAL4VP16 fusion construct and reporter plasmid were also treated with the test compound (10 μM) overnight. As another control, DMSO was added (but kept below 0.2% V/V) to cells transfected with the positive GAL4VP16 fusion construct or the GAL4-MEF2D and HDAC4-VP16 DNA constructs. A luciferase assay was performed as described above according to the manufacturer's protocol (Promega). The luciferase response was normalized against the Renilla Luciferase as an internal control.
The relative activity and IC50 calculations. […] The relative activity, I, was the ratio of former to later, i.e. X/Y, expressed in percentile. […] The IC50 was the concentration of the compounds when X/Y equals 50.

[3] = test system: neonatal rat ventricular myocytes (NRVMs); experiment: Inhibition of fetal calf serum induced cardiomyocyte hypertrophy in vitro; conditions: Rattus norvegicus, Ventricular myocyte; serum-starved NRVMs, 5% FCS, myocyte size 48 hours after treatment; concentration reducing FCS-induced hypertrophy by 50%
Description: To evaluate the ability of the test compounds to inhibit cardio myocyte hypertrophy in vitro, serum-starved neonatal rat ventricular myocytes (NRVMs) were exposed to medium with 5% Fetal Calf Serum (FCS), a powerful activator of myoctye growth (hypertrophy) and treated with one of the compounds at doses ranging from 0.2-10 μM or with the vehicle (dimethyl sulfoxide (DMSO)). Control cells received fresh media without serum. The myocyte size was determined 48 hours after treatment. The results in Table 7 show the concentrations of the test compounds required to reduce the FCS-induced hypertrophy in the NRVMs by 50% (IC50 μM).

MEF2D/HDAC4 protein-protein interactions, sequence (Q14814 whole entry, species assumed, the tested form may be a part): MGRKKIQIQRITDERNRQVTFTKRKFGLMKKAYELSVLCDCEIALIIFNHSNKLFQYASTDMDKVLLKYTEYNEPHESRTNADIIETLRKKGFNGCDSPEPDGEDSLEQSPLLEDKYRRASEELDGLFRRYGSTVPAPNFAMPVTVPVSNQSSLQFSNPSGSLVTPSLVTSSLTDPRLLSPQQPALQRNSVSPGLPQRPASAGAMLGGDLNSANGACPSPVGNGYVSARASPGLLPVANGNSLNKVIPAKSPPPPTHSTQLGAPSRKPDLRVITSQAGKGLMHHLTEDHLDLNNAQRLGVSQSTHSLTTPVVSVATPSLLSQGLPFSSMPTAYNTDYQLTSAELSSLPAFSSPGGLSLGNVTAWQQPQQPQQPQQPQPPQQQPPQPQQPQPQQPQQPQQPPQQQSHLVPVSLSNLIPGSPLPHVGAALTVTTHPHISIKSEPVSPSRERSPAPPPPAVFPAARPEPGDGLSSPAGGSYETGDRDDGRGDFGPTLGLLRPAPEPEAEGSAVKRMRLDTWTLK
MEF2D/p300 protein-protein interactions, sequence (Q14814 whole entry, species assumed, the tested form may be a part): as above

SMILES | IC50 [1] | IC50 [2] | IC50 [3]
Nc1ccccc1NC(=O)/C=C/c1cccc(CNCc2cccc(OC3CC3)c2)c1 [ST13] | 0.79 µM | 1.52 µM | 0.12 µM
Nc1ccccc1NC(=O)/C=C/c1cccc(CNCc2cccc(OC3CCC3)c2)c1 [ST14] | 0.94 µM | 1.52 µM | 0.15 µM
Cc1[nH]c2ccccc2c1CCNCc1cccc(/C=C/C(=O)Nc2ccccc2N)c1 [ST49, (E)-N-(2-aminophenyl)-3-(3-(((2-(2-methyl-1H-indol-3-yl)ethyl)amino)methyl)phenyl)acrylamide] |  |  | 1.23 µM
Nc1ccccc1NC(=O)/C=C/c1cccc(CNc2ccc3ccccc3c2)c1 [ST54, (E)-N-(2-aminophenyl)-3-(3-((naphthalen-2-ylamino)methyl)phenyl) Acrylamide] |  |  | 1.16 µM
CCC(=O)NC(CCCCC(=O)Nc1ccccc1N)C(=O)Nc1cccc(Br)c1 (stereo not shown) [ST89] | 0.071 µM | 0.77 µM | 
CCCC(=O)NC(CCCCC(=O)Nc1ccccc1N)C(=O)Nc1cccc(Br)c1 (stereo not shown) [ST90] |  | 0.46 µM | 
Nc1ccccc1NC(=O)CCCCC(NC(=O)c1ccccc1)C(=O)Nc1cccc(Br)c1 (stereo not shown) [ST92, N^7-(2-aminophenyl)-2-benzamido-N^1-(3-bromophenyl)heptanediamide] | 0.47 µM | 0.81 µM | 
COC(=O)N[C@H](CCCCC(=O)Nc1ccccc1N)C(=O)Nc1cccc(Br)c1 [ST96] |  | 1.37 µM | 
CCOC(=O)N[C@@H](CCCCC(=O)Nc1ccccc1N)C(=O)Nc1cccc(OCC)c1 [ST100, (S)-ethyl (7-((2-aminophenyl)amino)-1-((3-ethoxyphenyl)amino)-1,7-dioxoheptan-2-yl)carbamate] |  | 0.21 µM | 
CC(C)CC(=O)N[C@@H](CCCCC(=O)Nc1ccccc1N)C(=O)Nc1cccc(Br)c1 [ST101] |  | 0.35 µM | 
CCN1CCN(C(CCCCC(=O)Nc2ccccc2N)C(=O)Nc2cccc(Br)c2)C1=O (stereo not shown) [ST105] |  | 1.48 µM | 
CC(C)(C)OC(=O)N[C@@H](CCCCC(=O)Nc1ccccc1N)C(=O)Nc1cccc(Br)c1 [ST106] |  | 1.11 µM | 
CCOC(=O)N[C@@H](CCCCC(=O)NO)C(=O)Nc1cccc(Br)c1 [ST107] |  | 0.44 µM | 
O=C(CCCC[C@@H](NC(=O)c1ccccn1)C(=O)Nc1cccc(Br)c1)NO [ST111] |  | 0.94 µM | 
CCOC(=O)N[C@H](CCCCC(=O)NO)C(=O)Nc1cccc(Br)c1 [ST112] |  | 0.61 µM | 
CCOC(=O)NC(CCCCC(=O)Nc1ccccc1N)C(=O)Nc1cccc2cccnc12 (stereo not shown) [ST117] |  | 0.94 µM | 
Nc1ccccc1NC(=O)CCCCC(NC(=O)c1ccccc1)C(=O)Nc1ccncc1 (stereo not shown) [ST121] |  | 2.75 µM | 
CCOC(=O)NC(CCCCC(=O)Nc1ccccc1N)C(=O)Nc1cccnc1 (stereo not shown) [ST123] |  | 2 µM | 
CCOC(=O)NC(CCCCC(=O)Nc1ccccc1N)C(=O)Nc1ccccn1 (stereo not shown) [ST126] |  | 3.68 µM | 
CCOC(=O)NC(CCCCC(=O)Nc1ccccc1N)C(=O)Nc1cncc(OCC)c1 (stereo not shown) [ST127] |  | 1.84 µM | 
O=C(CCCC[C@@H](NC(=O)c1ccccc1)C(=O)NC1CC1)NO [ST128] |  | 2.51 µM | 

Further compounds by falling IC50 [2], results first:

IC50 [1] | IC50 [2] | SMILES | IC50 [3]
0.38 µM | 9.4 µM | Nc1ccccc1NC(=O)/C=C/c1cccc(CNc2ccccc2)c1 [ST1, (E)-N-(2-aminophenyl)-3-(3-((phenylamino)methyl)phenyl)acrylamide] | 0.81 µM
0.51 µM | 4.53 µM | Nc1ccccc1NC(=O)/C=C/c1cccc(CNc2ccc3ncccc3c2)c1 [ST55, (E)-N-(2-aminophenyl)-3-(3-((quinolin-6-ylamino)methyl)phenyl)acrylamide] | 9.26 µM
1.69 µM | 2.48 µM | Cc1csc(NCc2cccc(/C=C/C(=O)Nc3ccccc3N)c2)n1 [ST66, (E)-N-(2-aminophenyl)-3-(3-((4-methylthiazol-2-ylamino)methyl)phenyl)acrylamide] | 1420 µM
 | 2.44 µM | CCOC(=O)NC(CCCCC(=O)Nc1ccccc1N)C(=O)Nc1ccncc1 (stereo not shown) [ST125] | 
2.73 µM | 1.85 µM | Nc1ccccc1NC(=O)/C=C/c1cccc(CNc2nc(C(F)(F)F)co2)c1 [ST63, (E)-N-(2-aminophenyl)-3-(3-((4-(trifluoromethyl)oxazol-2-ylamino)methyl)phenyl)acrylamide] | 4.2 µM
 | 1.62 µM | Nc1ccccc1NC(=O)CCCCC(NC(=O)c1ccccn1)C(=O)Nc1cccnc1 (stereo not shown) [ST122] | 
1.6 µM | 1.6 µM | Nc1ccccc1NC(=O)/C=C/c1cccc(CNc2cccc(OC3CC3)c2)c1 [ST7, (E)-N-(2-aminophenyl)-3-(3-(((3-cyclopropoxyphenyl)amino)methyl)phenyl)acrylamide] | 0.46 µM
 | 1.56 µM | Nc1ccccc1NC(=O)CCCCC(NC(=O)c1ccccc1)C(=O)Nc1cccnc1 (stereo not shown) [ST120] | 
 | 1.53 µM | CCOC(=O)NC(CCCCC(=O)Nc1ccccc1N)C(=O)Nc1cncc(OC)c1 (stereo not shown) [ST124] | 
 | 1.46 µM | CCOC(=O)NC(CCCCC(=O)Nc1ccccc1N)C(=O)Nc1ccccc1 (stereo not shown) [ST91] | 
 | 1.25 µM | CCC(=O)CNC(CCCCC(=O)NO)C(=O)Nc1cccc(Br)c1 (stereo not shown) [ST114] | 
1.1 µM | 1.07 µM | CCOc1cccc(NCc2cccc(/C=C/C(=O)Nc3ccccc3N)c2)c1 [ST4, (E)-N-(2-aminophenyl)-3-(3-(((3-ethoxyphenyl)amino)methyl)phenyl)acrylamide] | 4.37 µM
 | 1.04 µM | CCOC(=O)N[C@H](CCCCC(=O)Nc1ccccc1N)C(=O)Nc1cccc(Br)c1 [ST95] | 
0.44 µM | 0.84 µM | CCOC(=O)NC(CCCCC(=O)Nc1ccccc1N)C(=O)Nc1cccc(OC2CC2)c1 (stereo not shown) [ST83, ethyl (7-((2-aminophenyl)amino)-1-((3-cyclopropoxyphenyl)amino)-1,7-dioxoheptan-2-yl)carbamate] | 3.85 µM
 | 0.68 µM | O=C(CCCCC(NC(=O)c1cccnc1)C(=O)Nc1cccc(Br)c1)NO (stereo not shown) [ST109] | 
1.08 µM | 0.61 µM | Nc1ccccc1NC(=O)CCCCC(NC(=O)c1cccnc1)C(=O)Nc1cccc(Br)c1 (stereo not shown) [ST93, N^7-(2-aminophenyl)-N^1-(3-bromophenyl)-2-(nicotinamido)heptanediamide] | 5500 µM
 | 0.59 µM | Nc1ccccc1NC(=O)CCCC[C@H](NC(=O)OCC1CC1)C(=O)Nc1cccc(Br)c1 [ST99] | 
 | 0.54 µM | CCOC(=O)NC(CCCCC(=O)Nc1ccccc1N)C(=O)Nc1nc(-c2ccncc2)cs1 (stereo not shown) [ST115] | 
 | 0.49 µM | CCOC(=O)NC(CCCCC(=O)Nc1ccccc1N)C(=O)Nc1ccc2ncccc2c1 (stereo not shown) [ST118] | 
< 0.15 µM | 0.47 µM | COC(=O)NC(CCCCC(=O)Nc1ccccc1N)C(=O)Nc1cccc(SC)c1 (stereo not shown) [ST85, methyl (7-((2-aminophenyl)amino)-1-((3-(methylthio)phenyl)amino)-1,7-dioxoheptan-2-yl)carbamate] | 
 | 0.45 µM | CC(C)OC(=O)N[C@@H](CCCCC(=O)Nc1ccccc1N)C(=O)Nc1cccc(Br)c1 [ST97] | 
 | 0.42 µM | CCCC(=O)NC(CCCCC(=O)NO)C(=O)Nc1cccc(Br)c1 (stereo not shown) [ST110] | 
 | 0.4 µM | CCCC(=O)N[C@@H](CCCCC(=O)NO)C(=O)Nc1cccc(Br)c1 [ST108] | 
 | 0.35 µM | COC(=O)N[C@@H](CCCCC(=O)Nc1ccccc1N)C(=O)Nc1cccc(Br)c1 [ST103] | 
 | 0.32 µM | Nc1ccccc1NC(=O)CCCC[C@H](NC(=O)CC1CC1)C(=O)Nc1cccc(Br)c1 [ST98] | 
 | 0.26 µM | CCOC(=O)NC(CCCCC(=O)NO)C(=O)Nc1cccc(Br)c1 (stereo not shown) [ST113] | 

Reference: patent publication US11230524B2, “Myocyte enhancer factor 2 (MEF2) modulators” (STANDARD LLC, priority 2017, dated 2022)
